Reference: article PMC3950855 (British Journal of Cancer, 2014)
Several values for one entry are separate records, joined by “and”; a condition that tells them apart may be missing. Equal entries are not always repeated.

Columns and labels:
[1] = Plasma pharmacokinetics by LC/PDA; settings: human, in vivo, im, Panobinostat Cmax (mean), 20 mg
[2] = Phase I trial safety: adverse events; type: in vivo, human
CYP2D6 = settings: ref Hamberg et al, 2011; Filppula et al, 2012; cited from earlier work
[3] = system: histone H3 acetylation in PBMNC; test: Acetylation of histone H3 in PBMNC of study patients; type: in vivo, human; settings: dose level 1, three patients
[4] = system: GIST-T1 (exon 11-mutant) cells; test: GIST-T1 cells immunoblot; type: cell-based
[5] = 20 mg thrice weekly; ref Fukutomi et al (2012); cited from earlier work
PBMNC = type: cell-based, human; settings: ex vivo incubation for 8 h
[6] = both dose levels + IM 400 mg, 12 patients
[7] = panobinostat + IM 400 mg, 12 patients
[8] = Pan 50 nm for 8 h, then withdrawal

**Q.** Which results are given for `Cc1[nH]c2ccccc2c1CCNCc1ccc(/C=C/C(=O)NO)cc1` [panobinostat, Panobinostat]?
**A.** Cmax ([1]; D1, with IM 400 mg): 36.1 nM; Cmax ([1]; D8, with IM 400 mg): 47.5 nM; Cmax ([1]; D15, with IM 400 mg): 44.6 nM; Anaemia, % of patients [2, 6]: 42% and 41.7%; Anaemia, No. of patients Total [2, 6]: 5; Chills, % of patients [2, 6]: 16.7%; Chills, No. of patients Total [2, 6]: 2; Constipation, % of patients [2, 6]: 16.7%; Constipation, No. of patients Total [2, 6]: 2; Creatinine, % of patients [2, 6]: 58% and 58.3%; Creatinine, No. of patients Total [2, 6]: 7; Diarrhoea, % of patients [2, 6]: 42% and 41.7%; Diarrhoea, No. of patients Total [2, 6]: 5; Dizziness, % of patients [2, 6]: 25.0%; Dizziness, No. of patients Total [2, 6]: 3; Dry mouth, % of patients [2, 6]: 16.7%; Dry mouth, No. of patients Total [2, 6]: 2; Dry skin, % of patients [2, 6]: 16.7%; Dry skin, No. of patients Total [2, 6]: 2; Dysgeusia, % of patients [2, 6]: 16.7%; Dysgeusia, No. of patients Total [2, 6]: 2; Dyspepsia, % of patients [2, 6]: 25.0%; Dyspepsia, No. of patients Total [2, 6]: 3; Fatigue, % of patients [2, 6]: 67% and 66.7%; Fatigue, No. of patients Total [2, 6]: 8; Headache, % of patients [2, 6]: 16.7%; Headache, No. of patients Total [2, 6]: 2; Hypothyroidism, % of patients [2, 6]: 25.0%; Hypothyroidism, No. of patients Total [2, 6]: 3; Lymphopenia, % of patients [2, 6]: 16.7%; Lymphopenia, No. of patients Total [2, 6]: 2; Muscle spasms, % of patients [2, 6]: 25.0%; Muscle spasms, No. of patients Total [2, 6]: 3; Nausea, % of patients [2, 6]: 50%; Nausea, No. of patients Total [2, 6]: 6; Neutropenia, % of patients [2, 6]: 16.7%; Neutropenia, No. of patients Total [2, 6]: 2; Oedema, % of patients [2, 6]: 25.0%; Oedema, No. of patients Total [2, 6]: 3; Thrombocytopenia, % of patients [2, 6]: 91.7%; Thrombocytopenia, No. of patients Total [2, 6]: 11; Vomiting, % of patients [2, 6]: 33% and 33.3%; Vomiting, No. of patients Total [2, 6]: 4; Weight loss, % of patients [2, 6]: 25.0%; Weight loss, No. of patients Total [2, 6]: 3; MTD (dose level) ([2]; dose level 1 = panobinostat 20 mg + IM 400 mg): dose level 1; dose-limiting toxicity ([2]; dose level 2 (30 mg panobinostat and 400 mg IM)): severe thrombocytopenia; Anaemia, No. of patients Grade 2 ([2]; panobinostat 20 mg + IM 400 mg): 3; Anaemia, No. of patients Total ([2]; panobinostat 20 mg + IM 400 mg): 3; Chills, No. of patients Grade 1 ([2]; panobinostat 20 mg + IM 400 mg): 1; Chills, No. of patients Grade 2 ([2]; panobinostat 20 mg + IM 400 mg): 1; Chills, No. of patients Total ([2]; panobinostat 20 mg + IM 400 mg): 2; Constipation, No. of patients Grade 1 ([2]; panobinostat 20 mg + IM 400 mg): 1; Constipation, No. of patients Total ([2]; panobinostat 20 mg + IM 400 mg): 1; Creatinine, No. of patients Grade 1 ([2]; panobinostat 20 mg + IM 400 mg): 2; Creatinine, No. of patients Grade 2 ([2]; panobinostat 20 mg + IM 400 mg): 2; Creatinine, No. of patients Grade 3 ([2]; panobinostat 20 mg + IM 400 mg): 1; Creatinine, No. of patients Total ([2]; panobinostat 20 mg + IM 400 mg): 5; Diarrhoea, No. of patients Grade 1 ([2]; panobinostat 20 mg + IM 400 mg): 3; Diarrhoea, No. of patients Grade 2 ([2]; panobinostat 20 mg + IM 400 mg): 1; Diarrhoea, No. of patients Total ([2]; panobinostat 20 mg + IM 400 mg): 4; Dizziness, No. of patients Grade 1 ([2]; panobinostat 20 mg + IM 400 mg): 2; Dizziness, No. of patients Total ([2]; panobinostat 20 mg + IM 400 mg): 2; Dry mouth, No. of patients Grade 1 ([2]; panobinostat 20 mg + IM 400 mg): 2; Dry mouth, No. of patients Total ([2]; panobinostat 20 mg + IM 400 mg): 2; Dry skin, No. of patients Grade 1 ([2]; panobinostat 20 mg + IM 400 mg): 1; Dry skin, No. of patients Total ([2]; panobinostat 20 mg + IM 400 mg): 1; Dysgeusia, No. of patients Grade 1 ([2]; panobinostat 20 mg + IM 400 mg): 2; Dysgeusia, No. of patients Total ([2]; panobinostat 20 mg + IM 400 mg): 2; Dyspepsia, No. of patients Grade 1 ([2]; panobinostat 20 mg + IM 400 mg): 2; Dyspepsia, No. of patients Total ([2]; panobinostat 20 mg + IM 400 mg): 2; Fatigue, No. of patients Grade 1 ([2]; panobinostat 20 mg + IM 400 mg): 3; Fatigue, No. of patients Grade 2 ([2]; panobinostat 20 mg + IM 400 mg): 3; Fatigue, No. of patients Total ([2]; panobinostat 20 mg + IM 400 mg): 6; Headache, No. of patients Grade 1 ([2]; panobinostat 20 mg + IM 400 mg): 1; Headache, No. of patients Total ([2]; panobinostat 20 mg + IM 400 mg): 1; Hypothyroidism, No. of patients Grade 1 ([2]; panobinostat 20 mg + IM 400 mg): 3; Hypothyroidism, No. of patients Total ([2]; panobinostat 20 mg + IM 400 mg): 3; Lymphopenia, No. of patients Grade 3 ([2]; panobinostat 20 mg + IM 400 mg): 1; Lymphopenia, No. of patients Total ([2]; panobinostat 20 mg + IM 400 mg): 1; Muscle spasms, No. of patients Grade 1 ([2]; panobinostat 20 mg + IM 400 mg): 1; Muscle spasms, No. of patients Grade 2 ([2]; panobinostat 20 mg + IM 400 mg): 1; Muscle spasms, No. of patients Total ([2]; panobinostat 20 mg + IM 400 mg): 2; Nausea, No. of patients Grade 1 ([2]; panobinostat 20 mg + IM 400 mg): 1; Nausea, No. of patients Grade 2 ([2]; panobinostat 20 mg + IM 400 mg): 1; Nausea, No. of patients Total ([2]; panobinostat 20 mg + IM 400 mg): 2; Neutropenia, No. of patients Grade 4 ([2]; panobinostat 20 mg + IM 400 mg): 1; Neutropenia, No. of patients Total ([2]; panobinostat 20 mg + IM 400 mg): 1; Oedema, No. of patients Grade 1 ([2]; panobinostat 20 mg + IM 400 mg): 2; Oedema, No. of patients Total ([2]; panobinostat 20 mg + IM 400 mg): 2; Thrombocytopenia, No. of patients Grade 1 ([2]; panobinostat 20 mg + IM 400 mg): 3; Thrombocytopenia, No. of patients Grade 2 ([2]; panobinostat 20 mg + IM 400 mg): 1; Thrombocytopenia, No. of patients Grade 3 ([2]; panobinostat 20 mg + IM 400 mg): 1; Thrombocytopenia, No. of patients Grade 4 ([2]; panobinostat 20 mg + IM 400 mg): 1; Thrombocytopenia, No. of patients Total ([2]; panobinostat 20 mg + IM 400 mg): 6; Vomiting, No. of patients Grade 2 ([2]; panobinostat 20 mg + IM 400 mg): 1; Vomiting, No. of patients Total ([2]; panobinostat 20 mg + IM 400 mg): 1; Weight loss, No. of patients Grade 1 ([2]; panobinostat 20 mg + IM 400 mg): 1; Weight loss, No. of patients Grade 2 ([2]; panobinostat 20 mg + IM 400 mg): 1; Weight loss, No. of patients Total ([2]; panobinostat 20 mg + IM 400 mg): 2; Anaemia, No. of patients Grade 2 ([2]; panobinostat 30 mg + IM 400 mg): 2; Anaemia, No. of patients Total ([2]; panobinostat 30 mg + IM 400 mg): 2; Chills, No. of patients Total ([2]; panobinostat 30 mg + IM 400 mg): 0; Constipation, No. of patients Grade 1 ([2]; panobinostat 30 mg + IM 400 mg): 1; Constipation, No. of patients Total ([2]; panobinostat 30 mg + IM 400 mg): 1; Creatinine, No. of patients Grade 1 ([2]; panobinostat 30 mg + IM 400 mg): 1; Creatinine, No. of patients Grade 2 ([2]; panobinostat 30 mg + IM 400 mg): 1; Creatinine, No. of patients Total ([2]; panobinostat 30 mg + IM 400 mg): 2; Diarrhoea, No. of patients Grade 1 ([2]; panobinostat 30 mg + IM 400 mg): 1; Diarrhoea, No. of patients Total ([2]; panobinostat 30 mg + IM 400 mg): 1; Dizziness, No. of patients Grade 1 ([2]; panobinostat 30 mg + IM 400 mg): 1; Dizziness, No. of patients Total ([2]; panobinostat 30 mg + IM 400 mg): 1; Dry mouth, No. of patients Total ([2]; panobinostat 30 mg + IM 400 mg): 0; Dry skin, No. of patients Grade 1 ([2]; panobinostat 30 mg + IM 400 mg): 1; Dry skin, No. of patients Total ([2]; panobinostat 30 mg + IM 400 mg): 1; Dysgeusia, No. of patients Total ([2]; panobinostat 30 mg + IM 400 mg): 0; Dyspepsia, No. of patients Grade 1 ([2]; panobinostat 30 mg + IM 400 mg): 1; Dyspepsia, No. of patients Total ([2]; panobinostat 30 mg + IM 400 mg): 1; Fatigue, No. of patients Grade 2 ([2]; panobinostat 30 mg + IM 400 mg): 2; Fatigue, No. of patients Total ([2]; panobinostat 30 mg + IM 400 mg): 2; Headache, No. of patients Grade 2 ([2]; panobinostat 30 mg + IM 400 mg): 1; Headache, No. of patients Total ([2]; panobinostat 30 mg + IM 400 mg): 1; Hypothyroidism, No. of patients Total ([2]; panobinostat 30 mg + IM 400 mg): 0; Lymphopenia, No. of patients Grade 2 ([2]; panobinostat 30 mg + IM 400 mg): 1; Lymphopenia, No. of patients Total ([2]; panobinostat 30 mg + IM 400 mg): 1; Muscle spasms, No. of patients Grade 2 ([2]; panobinostat 30 mg + IM 400 mg): 1; Muscle spasms, No. of patients Total ([2]; panobinostat 30 mg + IM 400 mg): 1; Nausea, No. of patients Grade 1 ([2]; panobinostat 30 mg + IM 400 mg): 1; Nausea, No. of patients Grade 2 ([2]; panobinostat 30 mg + IM 400 mg): 2; Nausea, No. of patients Grade 3 ([2]; panobinostat 30 mg + IM 400 mg): 1; Nausea, No. of patients Total ([2]; panobinostat 30 mg + IM 400 mg): 4; Neutropenia, No. of patients Grade 2 ([2]; panobinostat 30 mg + IM 400 mg): 1; Neutropenia, No. of patients Total ([2]; panobinostat 30 mg + IM 400 mg): 1; Oedema, No. of patients Grade 1 ([2]; panobinostat 30 mg + IM 400 mg): 1; Oedema, No. of patients Total ([2]; panobinostat 30 mg + IM 400 mg): 1; Thrombocytopenia, No. of patients Grade 3 ([2]; panobinostat 30 mg + IM 400 mg): 3; Thrombocytopenia, No. of patients Grade 4 ([2]; panobinostat 30 mg + IM 400 mg): 2; Thrombocytopenia, No. of patients Total ([2]; panobinostat 30 mg + IM 400 mg): 5; Vomiting, No. of patients Grade 1 ([2]; panobinostat 30 mg + IM 400 mg): 2; Vomiting, No. of patients Grade 2 ([2]; panobinostat 30 mg + IM 400 mg): 1; Vomiting, No. of patients Total ([2]; panobinostat 30 mg + IM 400 mg): 3; Weight loss, No. of patients Grade 2 ([2]; panobinostat 30 mg + IM 400 mg): 1; Weight loss, No. of patients Total ([2]; panobinostat 30 mg + IM 400 mg): 1; Grade 3 and 4 toxicities clearly attributable to study treatments ([2]; panobinostat + IM 400 mg): thrombocytopenia, neutropenia and nausea; severe hepatotoxicity ([2]; panobinostat + IM 400 mg): did not occur; patients with at least one adverse event [2, 7]: All patients; treatment-related deaths [2, 7]: no treatment-related deaths; CYP2D6 inhibition (CYP2D6): weak inhibitor; time H3 acetylation was maintained in PBMNCs [3]: 24 h; effect of continuous panobinostat treatment for 32 h [4]: reactivation of KIT phosphorylation; persistence of H3 acetylation after removal of panobinostat [4, 8]: 8 h; time to complete disappearance of H3 acetylation after removal [4, 8]: ≤ 24 h; Cmax plasma level, panobinostat monotherapy [5]: 10 ng /ml^−1; concentration at which H3 acetylation became detectable (PBMNC): ≥ 5 ng/mL
